Experimental findings from US10323038B2, “Pyrazole compounds and methods of making and using same” (ABIDE THERAPEUTICS, INC., priority 2015, dated 2019) are described below.

What all share (format): biochemical
Experiment [1] deals with FAAH (Homo sapiens (Human), UniProt O00519). Nature of the experiment: In vitro competitive activity-based protein profiling, FAAH (human). The conditions noted are these: human proteome; for inhibition at 1 µM: read-out: FAAH % inh. 1 μM (human). On the procedure: (§1) In Vitro Competitive Activity-Based Protein Profiling.
(§2) Proteomes (mouse brain membrane fraction or cell lysates for mouse assays; human prefrontal cortex or cell membrane fractions for human assays) (50 μL, 1.0 mg/mL total protein concentration) were preincubated with varying concentrations of inhibitors at 37° C. After 30 min, FP—Rh or HT-01 (1.0 μL, 50 μM in DMSO) was added and the mixture was incubated for another 30 min at 37° C. Reactions were quenched with SDS loading buffer (15 μL-4×) and run on SDS-PAGE. Following gel imaging, serine hydrolase activity was determined by measuring fluorescent intensity of gel bands corresponding to MAGL and FAAH using ImageJ 1.43u software.

Experiment [2] concerns the target MAGL (Homo sapiens (Human), UniProt Q99685). Description: In vitro competitive activity-based protein profiling, MAGL (human). The conditions noted are these: human proteome; for inhibition at 1 µM: read-out: MAGL % inh. 1 μM (human). The protocol: as §1, §2
Experiment [3] addresses MAGL (Mus musculus (Mouse), UniProt O35678). Description: In vitro competitive activity-based protein profiling, MAGL (mouse). The conditions noted are these: for inhibition at 1 µM: read-out: MAGL % inh. 1 μM (mouse). The method in brief:
(§3)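 Residual MAGL and FAAH activity came from in-gel fluorescence after competition between inhibitor (30 min preincubation, 37° C) and the activity-based probe FP-Rh or HT-01 (30 min, 37° C) in mouse or human tissue or cell proteomes.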

For experiment [4], the target named is FAAH (Mus musculus (Mouse), UniProt O08914). Description: In vitro competitive activity-based protein profiling, FAAH (mouse). The conditions noted are these: for inhibition at 1 µM: read-out: FAAH % inh. 1 μM (mouse). The method in brief:
as §3

Chain of MAGL (Mus musculus (Mouse), UniProt O35678) (O35678 whole entry): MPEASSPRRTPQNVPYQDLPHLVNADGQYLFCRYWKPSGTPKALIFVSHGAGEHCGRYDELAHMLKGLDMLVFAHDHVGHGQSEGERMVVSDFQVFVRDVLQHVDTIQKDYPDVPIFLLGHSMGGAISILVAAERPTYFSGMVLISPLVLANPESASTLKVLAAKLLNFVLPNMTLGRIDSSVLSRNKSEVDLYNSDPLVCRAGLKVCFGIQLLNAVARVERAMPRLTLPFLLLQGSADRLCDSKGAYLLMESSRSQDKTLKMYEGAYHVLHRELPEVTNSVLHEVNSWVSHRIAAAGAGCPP
Chain of MAGL (Homo sapiens (Human), UniProt Q99685) (Q99685 whole entry): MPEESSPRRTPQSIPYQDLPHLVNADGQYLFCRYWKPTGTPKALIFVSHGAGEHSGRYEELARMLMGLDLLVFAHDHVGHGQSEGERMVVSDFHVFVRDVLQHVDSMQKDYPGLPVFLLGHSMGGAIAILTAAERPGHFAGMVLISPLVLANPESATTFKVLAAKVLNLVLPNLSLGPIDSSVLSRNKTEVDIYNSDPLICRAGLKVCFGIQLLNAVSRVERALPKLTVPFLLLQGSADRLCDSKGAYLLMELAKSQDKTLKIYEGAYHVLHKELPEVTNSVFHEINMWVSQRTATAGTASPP
Chain of FAAH (Homo sapiens (Human), UniProt O00519) (O00519 whole entry): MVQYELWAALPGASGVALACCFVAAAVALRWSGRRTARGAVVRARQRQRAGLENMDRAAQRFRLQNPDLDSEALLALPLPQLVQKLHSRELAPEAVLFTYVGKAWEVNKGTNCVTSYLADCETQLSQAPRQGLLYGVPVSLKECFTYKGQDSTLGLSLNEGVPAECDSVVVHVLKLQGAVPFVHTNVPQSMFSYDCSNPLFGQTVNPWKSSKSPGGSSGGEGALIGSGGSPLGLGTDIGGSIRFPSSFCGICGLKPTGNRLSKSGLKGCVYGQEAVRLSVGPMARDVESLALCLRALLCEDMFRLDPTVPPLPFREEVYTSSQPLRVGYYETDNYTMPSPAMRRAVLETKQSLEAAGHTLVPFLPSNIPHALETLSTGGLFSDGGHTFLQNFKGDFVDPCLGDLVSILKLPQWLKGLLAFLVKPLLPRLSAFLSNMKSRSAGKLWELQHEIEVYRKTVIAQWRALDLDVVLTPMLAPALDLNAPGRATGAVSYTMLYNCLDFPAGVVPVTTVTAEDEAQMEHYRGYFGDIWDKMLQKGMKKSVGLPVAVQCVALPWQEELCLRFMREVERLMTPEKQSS
Chain of FAAH (Mus musculus (Mouse), UniProt O08914) (O08914 whole entry): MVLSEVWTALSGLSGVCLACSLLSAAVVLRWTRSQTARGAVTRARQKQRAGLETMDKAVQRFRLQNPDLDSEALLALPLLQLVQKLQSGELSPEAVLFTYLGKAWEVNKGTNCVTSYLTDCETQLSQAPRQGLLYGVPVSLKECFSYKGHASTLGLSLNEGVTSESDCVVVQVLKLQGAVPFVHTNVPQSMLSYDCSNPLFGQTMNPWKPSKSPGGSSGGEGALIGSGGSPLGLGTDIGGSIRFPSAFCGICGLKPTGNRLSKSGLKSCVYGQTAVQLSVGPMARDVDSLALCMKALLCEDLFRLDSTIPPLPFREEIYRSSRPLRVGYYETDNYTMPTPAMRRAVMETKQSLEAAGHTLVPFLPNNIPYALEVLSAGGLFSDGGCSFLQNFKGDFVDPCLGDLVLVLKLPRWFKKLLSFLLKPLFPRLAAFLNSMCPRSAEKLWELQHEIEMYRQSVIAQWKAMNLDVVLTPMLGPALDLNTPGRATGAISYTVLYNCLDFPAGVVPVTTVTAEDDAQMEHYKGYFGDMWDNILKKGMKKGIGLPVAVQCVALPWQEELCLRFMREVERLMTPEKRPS

Regarding `CS(=O)(=O)Nc1cnn(C(=O)N2CCC3(CCN(Cc4ccc(Cl)c(Cl)c4)C3)C2)c1` (stereo not shown) [Example 283, N-(1-(7-(3,4-dichlorobenzyl)-2,7-diazaspiro[4.4]nonane-2-carbonyl)-1H-pyrazol-4-yl)methanesulfonamide], the inhibition at 1 µM in experiment [1] and in experiment [2] was at least 75% throughout.
Take `CS(=O)(=O)Nc1cnn(C(=O)N2CCC3(CCN(Cc4ccc(N5CCCC5)cc4C(F)(F)F)C3)C2)c1` (stereo not shown) [Example 285, N-(1-(7-(4-(pyrrolidin-1-yl)-2-(trifluoromethyl)benzyl)-2,7-diazaspiro[4.4]nonane-2-carbonyl)-1H-pyrazol-4-yl)methanesulfonamide]: the inhibition at 1 µM in experiment [1] and in experiment [2] was at least 75% in each case.
For the compound `CS(=O)(=O)Nc1cnn(C(=O)N2CCC3(CCN(Cc4cccc(Cl)c4Cl)C3)C2)c1` (stereo not shown) [Example 288, N-(1-(7-(2,3-dichlorobenzyl)-2,7-diazaspiro[4.4]nonane-2-carbonyl)-1H-pyrazol-4-yl)methanesulfonamide], the inhibition at 1 µM in experiment [1] and in experiment [2] was at least 75% throughout.
As to `CS(=O)(=O)Nc1cnn(C(=O)N2CCN(Cc3ccc(-c4cncnc4)cc3C(F)(F)F)CC2)c1` [Example 290, N-(1-(4-(4-(pyrimidin-5-yl)-2-(trifluoromethyl)benzy1)piperazine-1-carbonyl)-1H-pyrazol-4-yl)methanesulfonamide], the inhibition at 1 µM in experiment [1] and in experiment [2] was at least 75% in each case.
As for `CS(=O)(=O)Nc1cnn(C(=O)N2CCN(Cc3cc(Cl)cc(C(F)(F)F)c3)CC2)c1` [Example 294, N-(1-(4-(3-chloro-5-(trifluoromethyl)benzyl)piperazine-1-carbonyl)-1H-pyrazol-4-yl)methanesulfonamide], the inhibition at 1 µM in experiment [3] (1 μM) and in experiment [4] (1 μM) was at least 75% in each case.
Regarding `CS(=O)(=O)Nc1cnn(C(=O)N2CCN(Cc3cc(N4CCCC4)cc(C(F)(F)F)c3)CC2)c1` [Example 295, N-(1-(4-(3-(pyrrolidin-1-yl)-5-(trifluoromethyl)benzyl)piperazine-1-carbonyl)-1H-pyrazol-4-yl)methanesulfonamide], the inhibition at 1 µM in experiment [3] (1 μM) and in experiment [4] (1 μM) was at least 75% throughout.
Consider `CS(=O)(=O)Nc1cnn(C(=O)N2CCN(Cc3cccc(Oc4ccc(Cl)cc4)c3)CC2)c1` [Example 296, N-(1-(4-(3-(4-chlorophenoxy)benzyl)piperazine-1-carbonyl)-1H-pyrazol-4-yl)methanesulfonamide], for which the inhibition at 1 µM in experiment [3] (1 μM) and in experiment [4] (1 μM) was at least 75% in each case.
On to `CS(=O)(=O)Nc1cnn(C(=O)N2CCC3(CCN(Cc4ccc(N5CCCC5)c(Cl)c4)C3)CC2)c1` [Example 298, N-(1-(2-(3-chloro-4-(pyrrolidin-1-yl)benzyl)-2,8-diazaspiro[4.5]|decane-8-carbonyl)-1H-pyrazol-4-yl)methanesulfonamide], for which the inhibition at 1 µM in experiment [1] and in experiment [2] was at least 75% throughout.
For the compound `CN(Cc1ccccc1C(F)(F)F)[C@H]1C[C@@H]2CN(C(=O)n3cc(NS(C)(=O)=O)cn3)C[C@@H]2C1` [Example 299, N-(1-(trans-5-(methyl(2-(trifluoromethyl)benzyl)amino)octahydrocyclopenta[c]pyrrole-2-carbonyl)-1H-pyrazol-4-yl)methanesulfonamide], the inhibition at 1 µM in experiment [3] (1 μM) and in experiment [4] (1 μM) was at least 75% in each case.
In the case of `CN(Cc1ccccc1C(F)(F)F)[C@@H]1C[C@@H]2CN(C(=O)n3cc(NS(C)(=O)=O)cn3)C[C@@H]2C1` [Example 300, N-(1-(cis-5-(methyl(2-(trifluoromethyl)benzyl)amino)octahydrocyclopenta[c]pyrrole-2-carbonyl)-1H-pyrazol-4-yl)methanesulfonamide], the inhibition at 1 µM in experiment [1] and in experiment [2] was at least 75% each time.
In the case of `CS(=O)(=O)Nc1cnn(C(=O)N2CCN(Cc3ccc(-c4ccc(C(F)(F)F)nc4)cc3C(F)(F)F)CC2)c1` [Example 301, N-(1-(4-(2-(trifluoromethyl)-4-(6-(trifluoromethyl)pyridin-3-yl)benzyl)piperazine-1-carbonyl)-1H-pyrazol-4-yl)methanesulfonamide], the inhibition at 10 µM was at least 75% in experiment [1] (10 μM, read-out: FAAH % inh. 10 μM (human)) and at least 75% in experiment [2] (10 μM, read-out: MAGL % inh. 10 μM (human)).
As to `CS(=O)(=O)Nc1cnn(C(=O)N2CCN(Cc3ccc(-c4ccc(C(N)=O)nc4)cc3C(F)(F)F)CC2)c1` [Example 302], the inhibition at 1 µM in experiment [3] (1 μM) is 25 to 50%; in experiment [4] (1 μM) it was at least 75%.
One may read the IC50 as the concentration at which inhibition is half-maximal. High values mean a need for much substance, low ones inhibition by little substance. In the case of `CS(=O)(=O)Nc1cnn(C(=O)N2CCN(Cc3ccc(-c4ncco4)cc3C(F)(F)F)CC2)c1` [Example 303, N-(1-(4-(4-(oxazol-2-yl)-2-(trifluoromethyl)benzy)piperazine-1-carbonyl)-1H-pyrazol-4-yl)methanesulfonamide], the IC50 in experiment [3] was at most 100 nM; in experiment [4], 1000 to 10000 nM. Moreover, the inhibition at 1 µM in experiment [3] (1 μM) is 50 to 75%; in experiment [4] (1 μM), at least 75%.
In the case of `CS(=O)(=O)Nc1cnn(C(=O)N2CCN(Cc3ccc(-c4nc5ccccc5o4)cc3C(F)(F)F)CC2)c1` [Example 304, N-(1-(4-(4-(benzo[d]oxazol-2-yl)-2-(trifluoromethyl)benzyl)piperazine-1-carbonyl)-1H-pyrazol-4-yl)methanesulfonamide], the inhibition at 1 µM in experiment [1] is at least 75%; in experiment [2] it was 25 to 50%.
Turning to `CS(=O)(=O)Nc1cnn(C(=O)N2CCN(Cc3ccc(-c4nc5ccccc5s4)cc3C(F)(F)F)CC2)c1` [Example 305, N-(1-(4-(4-(benzo[d]thiazol-2-yl)-2-(trifluoromethyl)benzyl)piperazine-1-carbonyl)-1H-pyrazol-4-yl)methanesulfonamide], the inhibition at 1 µM in experiment [1] and in experiment [2] was at least 75% each time.
Take `Cc1nnc(-c2ccc(CN3CCN(C(=O)n4cc(NS(C)(=O)=O)cn4)CC3)c(C(F)(F)F)c2)o1` [Example 306, N-(1-(4-(4-(5-methyl-1,3,4-oxadiazol-2-yl)-2-(trifluoromethyl)benzyl)piperazine-1-carbonyl)-1H-pyrazol-4-yl)methanesulfonamide]: the inhibition at 1 µM in experiment [1] is 0 to 25%; in experiment [2] it was 50 to 75%.
Take `Cc1noc(-c2ccc(CN3CCN(C(=O)n4cc(NS(C)(=O)=O)cn4)CC3)c(C(F)(F)F)c2)n1` [Example 307, N-(1-(4-(4-(3-methyl-1,2,4-oxadiazol-5-yl)-2-(trifluoromethyl)benzyl)piperazine-1-carbonyl)-1H-pyrazol-4-yl)methanesulfonamide]: the results for the inhibition at 1 µM in experiment [3] (1 μM) and in experiment [4] (1 μM) were 25 to 50% and at least 75%, respectively.
With `Cc1nccn1-c1ccc(CN2CCN(C(=O)n3cc(NS(C)(=O)=O)cn3)CC2)c(C(F)(F)F)c1` [Example 308, N-(1-(4-(4-(2-methyl-1H-imidazol-1-yl)-2-(trifluoromethyl)benzyl)piperazine-1-carbonyl)-1H-pyrazol-4-yl)methanesulfonamide], the inhibition at 1 µM in experiment [1] is 0 to 25%; in experiment [2], at least 75%.
Regarding `CS(=O)(=O)Nc1cnn(C(=O)N2CCN(Cc3ccc(-c4ccncn4)cc3C(F)(F)F)CC2)c1` [Example 309, N-(1-(4-(4-(pyrimidin-4-yl)-2-(trifluoromethyl)benzyl)piperazine-1-carbonyl)-1H-pyrazol-4-yl)methanesulfonamide], the inhibition at 1 µM in experiment [3] (1 μM) is 25 to 50%; in experiment [4] (1 μM), at least 75%.
Turning to `CS(=O)(=O)Nc1cnn(C(=O)N2CCN(Cc3ccc(-c4ncccn4)cc3C(F)(F)F)CC2)c1` [Example 310], the inhibition at 1 µM in experiment [1] and in experiment [2] was at least 75% throughout.
Turning to `CC(=O)Nc1cnn(C(=O)N2CCN(Cc3cc(Cl)ccc3C(F)(F)F)CC2)c1` [Example 314, N-(1-(4-(5-chloro-2-(trifluoromethyl)benzyl)piperazine-1-carbonyl)-1H-pyrazol-4-yl)acetamide], the inhibition at 1 µM in experiment [3] (1 μM) and in experiment [4] (1 μM) was at least 75% throughout.
For `CC(=O)Nc1cnn(C(=O)N2CC3CN(Cc4cc(Cl)cc(C(F)(F)F)c4)CC3C2)c1` (stereo not shown) [Example 315, N-(1-(5-(3-chloro-5-(trifluoromethyl)benzyl)octahydropyrrolo [3,4-c]pyrrole-2-carbonyl)-1H-pyrazol-4-yl)acetamide], the inhibition at 1 µM in experiment [3] (1 μM) and in experiment [4] (1 μM) was at least 75% each time.
As to `C#Cc1ccc(CN2CCN(C(=O)n3cc(N(C)C(C)=O)cn3)CC2)cc1` [Example 317, N-(1-(4-(4-ethynylbenzyl)piperazine-1-carbonyl)-1H-pyrazol-4-yl)-N-methylacetamide], the inhibition at 1 µM in experiment [3] (1 μM) and in experiment [4] (1 μM) was at least 75% throughout.
As for “N-(1-(5-(3-(4- methoxyphenoxy)benzyl) octahydropyrrolo[3,4-c]pyrrole-2- carbonyl)-1H-pyrazol-4-yl)-N- methylacetamide [Example 243]”, the concentration for half-maximal inhibition (IC50) in experiment [3] and in experiment [4] was at most 100 nM in each case. The “MAGL % inh. 1 μM (mouse)” value in experiment [3] (1 μM) was “A (A = % inhibition greater than or equal to 75%)”. Also, the “FAAH % inh. 1 μM (mouse)” value in experiment [4] (1 μM) is reported as “A (A = % inhibition greater than or equal to 75%)”.
